# Measurements published in ChEMBL document CHEMBL3526069, “Human pharmacokinetic prediction of UDP-glucuronosyltransferase substrates with an animal scale-up approach” (Drug Metab Dispos, 2011).
# Tested on: not listed separately
# Assay: Plasma clearance in human
# Details: in vivo
row,clearance [mL/min/kg],Compound
1,3.5,O=C([O-])Cc1ccccc1Nc1c(Cl)cccc1Cl.[Na+] [DICLOFENAC SODIUM]
2,1.7,Cc1ccc(C)c(OCCCC(C)(C)C(=O)O)c1 [GEMFIBROZIL]

# Same assay, conditions: plasma
row,clearance [mL/min/kg],Compound
1,1.58,COc1ccc2c(c1)c(CC(=O)O)c(C)n2C(=O)c1ccc(Cl)cc1 [INDOMETHACIN]

# Tested on: not listed separately
# Assay: Plasma clearance in po dosed human
# Details: in vivo
row,CL/F [mL/min/kg],Compound
1,6.48,O=C([O-])Cc1ccccc1Nc1c(Cl)cccc1Cl.[Na+] [DICLOFENAC SODIUM]
2,1.73,Cc1ccc(C)c(OCCCC(C)(C)C(=O)O)c1 [GEMFIBROZIL]

# Same assay, conditions: plasma
row,CL/F [mL/min/kg],Compound
1,1.58,COc1ccc2c(c1)c(CC(=O)O)c(C)n2C(=O)c1ccc(Cl)cc1 [INDOMETHACIN]

# Tested on: not listed separately
# Assay: Drug metabolism in bile duct-cannulated rat assessed as glucuronide concentration in bile and urine at 0.2 mg/kg, iv up to 24 hrs by LC/MS/MS analysis
# Type: ADME, organism-based
# Parameters: dose 0.2 mg/kg, route intravenous
# Details: in vivo
row,Fm,Compound
1,0.065,O=C([O-])Cc1ccccc1Nc1c(Cl)cccc1Cl.[Na+] [DICLOFENAC SODIUM]
2,0.366,Cc1ccc(C)c(OCCCC(C)(C)C(=O)O)c1 [GEMFIBROZIL]
3,0.004,COc1ccc2c(c1)c(CC(=O)O)c(C)n2C(=O)c1ccc(Cl)cc1 [INDOMETHACIN]

# Tested on: not listed separately
# Assay: Drug metabolism in gallbladder-cannulated mouse assessed as glucuronide concentration in bile and urine at 0.2 mg/kg, iv up to 24 hrs by LC/MS/MS analysis
# Type: ADME, organism-based
# Parameters: dose 0.2 mg/kg, route intravenous
# Details: in vivo
row,Fm,Compound
1,0.261,O=C([O-])Cc1ccccc1Nc1c(Cl)cccc1Cl.[Na+] [DICLOFENAC SODIUM]
2,0.173,Cc1ccc(C)c(OCCCC(C)(C)C(=O)O)c1 [GEMFIBROZIL]
3,0.001,COc1ccc2c(c1)c(CC(=O)O)c(C)n2C(=O)c1ccc(Cl)cc1 [INDOMETHACIN]

# Tested on: not listed separately
# Assay: Drug metabolism in bile duct-cannulated dog assessed as glucuronide concentration in bile and urine at 0.2 mg/kg, iv up to 24 hrs by LC/MS/MS analysis
# Type: ADME, organism-based, Canis lupus familiaris
# Parameters: dose 0.2 mg/kg, route intravenous
# Details: in vivo
row,Fm,Compound
1,0.522,O=C([O-])Cc1ccccc1Nc1c(Cl)cccc1Cl.[Na+] [DICLOFENAC SODIUM]
2,0.69,Cc1ccc(C)c(OCCCC(C)(C)C(=O)O)c1 [GEMFIBROZIL]
3,0.01,COc1ccc2c(c1)c(CC(=O)O)c(C)n2C(=O)c1ccc(Cl)cc1 [INDOMETHACIN]

# Tested on: Plasma
# Assay: not given
# Details: human
row,Fu,Compound
1,0.1,COc1ccc2c(c1)c(CC(=O)O)c(C)n2C(=O)c1ccc(Cl)cc1 [INDOMETHACIN]

# Tested on: not listed separately
# Assay: in vitro
# Details: mouse, plasma
# Description: Fraction unbound in mouse plasma by ultracentrifugation method
row,fraction unbound,Compound
1,0.005,O=C([O-])Cc1ccccc1Nc1c(Cl)cccc1Cl.[Na+] [DICLOFENAC SODIUM]
2,0.041,Cc1ccc(C)c(OCCCC(C)(C)C(=O)O)c1 [GEMFIBROZIL]
3,0.009,COc1ccc2c(c1)c(CC(=O)O)c(C)n2C(=O)c1ccc(Cl)cc1 [INDOMETHACIN]

# Tested on: not listed separately
# Assay: in vitro
# Details: rat, plasma
# Description: Fraction unbound in rat plasma by ultracentrifugation method
row,fraction unbound,Compound
1,0.006,O=C([O-])Cc1ccccc1Nc1c(Cl)cccc1Cl.[Na+] [DICLOFENAC SODIUM]
2,0.01,Cc1ccc(C)c(OCCCC(C)(C)C(=O)O)c1 [GEMFIBROZIL]
3,0.004,COc1ccc2c(c1)c(CC(=O)O)c(C)n2C(=O)c1ccc(Cl)cc1 [INDOMETHACIN]

# Tested on: not listed separately
# Assay: in vitro
# Details: rhesus monkey, plasma
# Description: Fraction unbound in monkey plasma by ultracentrifugation method
row,fraction unbound,Compound
1,0.005,O=C([O-])Cc1ccccc1Nc1c(Cl)cccc1Cl.[Na+] [DICLOFENAC SODIUM]
2,0.007,Cc1ccc(C)c(OCCCC(C)(C)C(=O)O)c1 [GEMFIBROZIL]
3,0.005,COc1ccc2c(c1)c(CC(=O)O)c(C)n2C(=O)c1ccc(Cl)cc1 [INDOMETHACIN]

# Tested on: not listed separately
# Assay: in vitro
# Details: dog, plasma
# Description: Fraction unbound in dog plasma by ultracentrifugation method
row,fraction unbound,Compound
1,0.003,O=C([O-])Cc1ccccc1Nc1c(Cl)cccc1Cl.[Na+] [DICLOFENAC SODIUM]
2,0.004,Cc1ccc(C)c(OCCCC(C)(C)C(=O)O)c1 [GEMFIBROZIL]
3,0.005,COc1ccc2c(c1)c(CC(=O)O)c(C)n2C(=O)c1ccc(Cl)cc1 [INDOMETHACIN]

# Tested on: not listed separately
# Assay: in vitro
# Details: human, plasma
# Description: Fraction unbound in human plasma by ultracentrifugation method
row,fraction unbound,Compound
1,0.003,O=C([O-])Cc1ccccc1Nc1c(Cl)cccc1Cl.[Na+] [DICLOFENAC SODIUM]
2,0.005,Cc1ccc(C)c(OCCCC(C)(C)C(=O)O)c1 [GEMFIBROZIL]

# Tested on: not listed separately
# Assay: in vitro
# Details: mouse
# Description: Ratio of drug level in blood to plasma in mouse
row,blood plasma ratio,Compound
1,0.67,O=C([O-])Cc1ccccc1Nc1c(Cl)cccc1Cl.[Na+] [DICLOFENAC SODIUM]
2,0.68,Cc1ccc(C)c(OCCCC(C)(C)C(=O)O)c1 [GEMFIBROZIL]
3,0.46,COc1ccc2c(c1)c(CC(=O)O)c(C)n2C(=O)c1ccc(Cl)cc1 [INDOMETHACIN]

# Tested on: not listed separately
# Assay: in vitro
# Details: rat
# Description: Ratio of drug level in blood to plasma in rat
row,blood plasma ratio,Compound
1,1.57,O=C([O-])Cc1ccccc1Nc1c(Cl)cccc1Cl.[Na+] [DICLOFENAC SODIUM]
2,0.83,Cc1ccc(C)c(OCCCC(C)(C)C(=O)O)c1 [GEMFIBROZIL]
3,0.97,COc1ccc2c(c1)c(CC(=O)O)c(C)n2C(=O)c1ccc(Cl)cc1 [INDOMETHACIN]

# Tested on: not listed separately
# Assay: in vitro
# Details: rhesus monkey
# Description: Ratio of drug level in blood to plasma in monkey
row,blood plasma ratio,Compound
1,1.01,O=C([O-])Cc1ccccc1Nc1c(Cl)cccc1Cl.[Na+] [DICLOFENAC SODIUM]
2,0.67,Cc1ccc(C)c(OCCCC(C)(C)C(=O)O)c1 [GEMFIBROZIL]
3,1.06,COc1ccc2c(c1)c(CC(=O)O)c(C)n2C(=O)c1ccc(Cl)cc1 [INDOMETHACIN]

# Tested on: not listed separately
# Assay: in vitro
# Details: dog
# Description: Ratio of drug level in blood to plasma in dog
row,blood plasma ratio,Compound
1,1.01,O=C([O-])Cc1ccccc1Nc1c(Cl)cccc1Cl.[Na+] [DICLOFENAC SODIUM]
2,0.64,Cc1ccc(C)c(OCCCC(C)(C)C(=O)O)c1 [GEMFIBROZIL]
3,0.65,COc1ccc2c(c1)c(CC(=O)O)c(C)n2C(=O)c1ccc(Cl)cc1 [INDOMETHACIN]

# Tested on: not listed separately
# Assay: in vitro
# Details: human
# Description: Ratio of drug level in blood to plasma in human
row,blood plasma ratio,Compound
1,0.71,O=C([O-])Cc1ccccc1Nc1c(Cl)cccc1Cl.[Na+] [DICLOFENAC SODIUM]
2,0.75,Cc1ccc(C)c(OCCCC(C)(C)C(=O)O)c1 [GEMFIBROZIL]
3,0.98,COc1ccc2c(c1)c(CC(=O)O)c(C)n2C(=O)c1ccc(Cl)cc1 [INDOMETHACIN]

# Tested on: not listed separately
# Assay: clinical
# Details: human, in vivo
# Description: Volume of distribution at steady state in human
row,Vd [L/kg],Compound
1,0.22,O=C([O-])Cc1ccccc1Nc1c(Cl)cccc1Cl.[Na+] [DICLOFENAC SODIUM]
2,1.11,Cc1ccc(C)c(OCCCC(C)(C)C(=O)O)c1 [GEMFIBROZIL]
3,0.925,COc1ccc2c(c1)c(CC(=O)O)c(C)n2C(=O)c1ccc(Cl)cc1 [INDOMETHACIN]

# Tested on: not listed separately
# Assay: clinical
# Details: human, in vivo
# Remark: another data set of the same source
row,half-life [h],Compound
1,0.726,O=C([O-])Cc1ccccc1Nc1c(Cl)cccc1Cl.[Na+] [DICLOFENAC SODIUM]
2,7.6,Cc1ccc(C)c(OCCCC(C)(C)C(=O)O)c1 [GEMFIBROZIL]
3,6.77,COc1ccc2c(c1)c(CC(=O)O)c(C)n2C(=O)c1ccc(Cl)cc1 [INDOMETHACIN]

# Tested on: not listed separately
# Assay: Drug metabolism in human assessed as glucuronide concentration in urine
# Details: not given
row,Fm,Compound
1,0.15,O=C([O-])Cc1ccccc1Nc1c(Cl)cccc1Cl.[Na+] [DICLOFENAC SODIUM]
2,0.4,Cc1ccc(C)c(OCCCC(C)(C)C(=O)O)c1 [GEMFIBROZIL]
3,0.217,COc1ccc2c(c1)c(CC(=O)O)c(C)n2C(=O)c1ccc(Cl)cc1 [INDOMETHACIN]

# Tested on: not listed separately
# Assay: Drug metabolism in bile duct-cannulated cynomolgus monkey assessed as glucuronide concentration in bile and urine at 0.2 mg/kg, iv up to 24 hrs by LC/MS/MS analysis
# Details: in vivo
row,Fm,Compound
1,0.29,O=C([O-])Cc1ccccc1Nc1c(Cl)cccc1Cl.[Na+] [DICLOFENAC SODIUM]
2,0.35,Cc1ccc(C)c(OCCCC(C)(C)C(=O)O)c1 [GEMFIBROZIL]
3,0.94,COc1ccc2c(c1)c(CC(=O)O)c(C)n2C(=O)c1ccc(Cl)cc1 [INDOMETHACIN]
